Data reported in patent US20230404887A1, “COMPOSITIONS TO LIMIT OR ELIMINATE THE PERCEPTION OF SWEAT MALODOR” (Firmenich SA, priority 2020, published 2023).

Key:
[1] = Expert perfumer evaluation of malodor reduction, dynamic olfactometer, against 3M2HA; parameters: species or system human
Procedure: The effectiveness of perfuming materials in compositions to reduce the perception of, for example, axillary sweat malodors, was evaluated by an expert perfumer by 1) selecting target axillary malodor components, 2) delivering target malodor components and candidate malodor reducing materials to the nose of an expert perfumer at carefully controlled concentrations, 3) having the expert perfumer identify the concentration at which malodor reduction was obtained, and 4) rating the degree of reduction achieved at the concentration identified in step 3.
In this method, a dynamic multi-channel olfactometer was used to precisely deliver known gas phase concentrations of the test materials, using forced evaporation, into a stream of air emanating from a smelling port. The appropriate concentration of the malodor component was established prior to its being mixed with the candidate malodor reducing substance. The concentration was set at a concentration sufficient to produce an intensity of 0.5 (mid-intensity) on a scale of 0-1. The expert perfumer then dynamically adjusted the concentration of the candidate malodor reducing substance to determine the effective concentration, while maintaining a fixed concentration of the malodor component. Once the appropriate concentration had been determined, the expert perfumer evaluated the perception of the mixtures repeatedly over a period of several minutes, taking breaks in between sniffs to avoid adaptation to the components being tested, before providing a rating.
Tests were performed in a forced-evaporation, dynamic olfactometer, with malodor component concentrations held fixed at a mid-intensity. Ratings of effectiveness were based in the following scale: −2 (significant increase in malodor), −1 (slight increase in malodor), 0 (no effect), 1 (slight malodor reduction), 2 (good malodor reduction), 3 (complete malodor reduction). The malodor (MO) component abbreviations are 3H3MHA (3-methyl-3-hydroxyhexanoic acid), 3M2HA (3-methyl-2-hexenoic acid), 3M3SH (3-methyl-3-sulphanylhexanol).

[2] = Naive panelist evaluation of malodor reduction at mid-intensity dosages, passive evaporation in jars, against 4MOA; parameters: species or system human; settings: MO 4MOA dosage 7.5%, test compound dosage 1.5% in DiPG on cellulose pads; jar equilibrated 4 hours at room temperature; N 26 panelists
Procedure: The performance of fragrancing products was evaluated by non-expert consumers under passive evaporation conditions. This was achieved by: 1) selecting target axillary malodor components, 2) delivering target malodor components and candidate malodor reducing materials (separately) to the noses of naïve panelists at a range of dosages established under passive evaporation conditions 3) having the panelists evaluate the overall intensity of each presented sample, 4) determining the average mid-intensity concentration for both the malodors and malodor reducing candidates of interest, 5) delivering samples containing a malodor component and a malodor reducing candidate of interest mixed together at the dosages determined in step 4, along with separate control samples containing either alone or neither, to the noses of panelists, 6) having panelists evaluate the malodor intensity for each presented sample, and 7) determining the degree of malodor reduction produced by the candidate malodor reducing material by comparing the malodor intensity ratings of the mixture to those of the control samples. […]

## CCOC(=O)C12CCCC1C1CCC2C1 (stereo not drawn) [ethyl tricyclo[5.2.1.0.(2,6)]decane-2-carboxylate]
[1]; MO 3M2HA held fixed at mid-intensity (0.5), headspace concentration providing an effective level
  EFFECTIVE CONCENTRATION: 1.07E−01 micrograms/L AIR
[1]; MO 3M2HA held fixed at mid-intensity (0.5 on scale 0-1), rating of degree of malodor reduction at the effective concentration
  EXPERT RATING: 3
[2]
  Reduction (%): 43%
